In publication PMC8145938, “Triphenilphosphonium Analogs of Chloramphenicol as Dual-Acting Antimicrobial and Antiproliferating Agents” (Antibiotics, 2021):

What was measured:
Assay type in all cases: cell-based
Escherichia coli J53rif = test: MIC determination, CHL resistant E. coli strains
Text: (§1) Standard laboratory strains of Bacillus subtilis subs. subtilis Cohn 1872, stains BR151, and 168, Staphylococcus aureus subsp. aureus Rosenbach 1884 strains JCM 2151 and entry MC#144 (from the Microorganisms Collection of the Moscow State University), Listeria monocytogenes Pirie 1940, Mycobacterium smegmatis Lehmann and Neumann 1899 (MC#377), and Escherichia coli Castellani and Chalmers 1919, strain JW5503 (with the deletion of tolC gene), which are resistant to the chloramphenicol strains, J53rif, C600rif/pIB55-1, C600rif/pIP162-1, and C600recA naI, were used.
(§2) The MICs for CAM-Cn-TPP and Cn-TPP were determined by Mueller-Hinton broth microdilution, as recommended by CLSI in the Methods for Dilution Antimicrobial Susceptibility Tests for Bacteria that Grow Aerobically, Approved Standard, 9th ed., CLSI document M07-A9, using in-house-prepared panels. The compounds were diluted in a 96-well microtiter plate to final concentrations ranging from 0.5 to 360 μM in a 250-µL aliquot of the bacterial suspension, followed by incubation at 37 °C or 30 °C for 18 h. […] The bacterial growth was observed visually alongside OD measurements. The experiments were carried out in triplicate.

[1] = test system: Escherichia coli C600rif/pIB55-1; test: MIC determination, CHL resistant E. coli strains
Text: as §1, §2

[2] = test system: Escherichia coli C600recA naI; test: MIC determination, CHL resistant E. coli strains; settings: C600RECANAI
Text: as §1, §2

[3] = test system: Escherichia coli C600rif/pIP162-1; test: MIC determination, CHL resistant E. coli strains
Text: as §1, §2

normal human fibroblasts = test: cell viability of normal cells; settings: submicromolar concentrations, preliminary results
Protocol: We also compared the effects of the obtained compounds on the suppression of normal cell growth.
The survival assay was performed essentially as described earlier. In short, cells were seeded into a 96-well plate, followed by treatment with increasing concentrations of the corresponding CAM-TPP derivatives for 3 days. 3-(4,5-dimethylthiazol-2-yl)-2,5-diphenyltetrazolium bromide (0.5 mg/mL MTT; Sigma-Aldrich) dissolved in media was added to each well. Following incubation for 2 h, the supernatant was carefully removed from the wells, and 100 µL of a DMSO:ethanol mix (1:1) was added to each well, followed by shaking for 10 min. The absorbance was measured at 570 nm in Bio Spec 1601, Shimadzu spectrometer. The OD570 of the DMSO solution in each well was considered to be proportional to the number of cells. The OD570 of the control (treatment without supplement) was considered to be 100%. The results were expressed as the means ± SEM. The data were analyzed using the GraphPad Prism 7 PRIZM computer software under the license of the Statistical Department (Vall’ d Hebron Hospital, Barcelona, Spain).

| Structure (SMILES) | MIC (Escherichia coli J53rif) [µM] | MIC [1] [µM] | MIC [2] [µM] | MIC [3] [µM] | effect on normal cell growth compared with cancer cells (normal human fibroblasts) |
| --- | --- | --- | --- | --- | --- |
| O=C(CCCCCCCCCC[P+](c1ccccc1)(c1ccccc1)c1ccccc1)N[C@H](CO)[C@H](O)c1ccc([N+](=O)[O-])cc1 [CAM-C10-TPP, (N-{[(1R,2R)-1,3-dihydroxy-1-(4-nitrophenyl)propan-2-yl]amino}-11-oxoundecyl)(triphenyl)phosphonium bromide] | 110 | 90 | 107 | > 199 | less affected by submicromolar concentrations of CAM-TPP derivatives than cancer cells |
| O=C(N[C@H](CO)[C@H](O)c1ccc([N+](=O)[O-])cc1)C(Cl)Cl [CHL, chloramphenicol] | > 396 | > 396 | > 396 | > 396 |  |
